From US20200399250A1, “Pyrimidine Derivatives as Tropomyosin Receptor Kinase A (TRKA) Inhibitors” (BIOMED X GMBH, priority 2017, published 2020)
Values joined by “and” are separate entries in the source; they are usually repeats but may differ in a detail not shown here. Equal entries are not always repeated. “Also recorded” adds a separate entry of the source.

Tests used:
TrkA [1] = molecular target: T1, TrkA (Homo sapiens, UniProt P04629); experiment: KINOMEscan primary screen against TrkA; assay type: binding; details: % of control
Protocol: (§1) Compounds were initially tested in a primary screen against TrkA (at 10 and 100 nM) and AurA (at 100 nM and 1 μM) using the KINOMEscan technology from DiscoverX Corporation, Fremont, Calif., USA (https://www.discoverx.com/services/drug-discovery-development-services/kinase-profiling/kinomescan).
Results were reported as % of control (% Ctrl.=(test compound signal−positive control signal)/(DMSO signal−positive control signal). KINOMEscan is an active site-directed competition binding assay that quantitatively measures the ability of a compound to compete with an immobilized, active-site directed ligand.

AurA = molecular target: T2, AurA (Homo sapiens, UniProt O14965); experiment: KINOMEscan primary screen against AurA; assay type: binding; details: % of control
T2 sequence (O14965 1-403): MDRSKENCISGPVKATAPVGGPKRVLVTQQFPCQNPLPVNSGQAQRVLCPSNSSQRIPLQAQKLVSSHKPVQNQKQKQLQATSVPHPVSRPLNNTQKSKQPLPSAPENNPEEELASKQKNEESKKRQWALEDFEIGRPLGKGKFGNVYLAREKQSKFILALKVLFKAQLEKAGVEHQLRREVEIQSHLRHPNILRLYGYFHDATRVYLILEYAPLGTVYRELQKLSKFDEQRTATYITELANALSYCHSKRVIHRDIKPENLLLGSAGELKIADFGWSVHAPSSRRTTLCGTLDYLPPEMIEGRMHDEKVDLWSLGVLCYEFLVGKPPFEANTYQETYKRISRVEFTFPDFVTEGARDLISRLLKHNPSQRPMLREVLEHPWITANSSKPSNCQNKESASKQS
Protocol: as §1

TrkA [2] = molecular target: T1, TrkA; experiment: KdELECT Kd measurement (KINOMEscan), TrkA; assay type: binding
Protocol: (§2) Kd measurements were done via the KdELECT product service from DiscoverX Corporation (Freemont, Calif., USA) which also employs the KINOMEscan technology. Here, inhibitor binding constants (Kd values) are calculated from duplicate 11-point dose-response curves.

TrkA [3] = experiment: KdELECT Kd measurement (KINOMEscan), TrkA; assay type: binding
Protocol: as §2

panel of 97 kinases = experiment: Selectivity profiling, scanEDGE kinase panel (KINOMEscan); assay type: binding; details: 100 nM, cut-off <35% ctrl
Protocol: Selectivity profiling was done over a panel of 97 kinases at 100 nM concentration (scanEDGE assay panel from Discover X, which also uses the KINOMEscan technology, whereat KIT(D816V) and KIT (V559D, T6701) were replaced by TrkB and TrkC). […] The employed profiling panel consisted of the following kinases: ABL1(T3151)-phosphorylated, ABL1-nonphosphorylated, ABL1-phosphorylated, ACVR1B, ADCK3, AKT1, AKT2, ALK, AURKA, AURKB, AXL, BMPR2, BRAF, BRAF (V600E), BTK, CDK11, CDK2, CDK3, CDK7, CDK9, CHEK1, CSF1R, CSNK1D, CSNK1G2, DCAMKL1, DYRK1B, EGFR, EGFR (L858R), EPHA2, ERBB2, ERBB4, ERK1, FAK, FGFR2, FGFR3, FLT3, GSK3B, IGF1R, IKK-alpha, IKK-beta, INSR, JAK2 (JH1domain-catalytic), JAK3 (JH1domain-catalytic), JNK1, JNK2, JNK3, KIT, LKB1, MAP3K4, MAPKAPK2, MARK3, MEK1, MEK2, MET, MKNK1, MKNK2, MLK1, p38-alpha, p38-beta, PAK1, PAK2, PAK4, PCTK1, PDGFRA, PDGFRB, PDPK1, PIK3C2B, PIK3CA, PIK3CG, PIM1, PIM2, PIM3, PKAC-alpha, PLK1, PLK3, PLK4, PRKCE, RAF1, RET, RIOK2, ROCK2, RSK2 (Kin. Dom. 1-N-terminal), SNARK, SRC, SRPK3, TGFBR1, TIE2, TRKA, TRKB, TRKC, TSSK1B, TYK2 (JH1domain-catalytic), ULK2, VEGFR2, YANK3, ZAP70

C57Bl/6 mice = experiment: Toxicity after i.v. injection in mice; assay type: in vivo; details: for Toxicity: single animal
Protocol: . Dimethylsulfoxide (DMSO) from J. T. Baker (Germany), Cremophor EL (Polyoxyethyleneglycerol triricinoleate 35 castor oil) from BASF (Germany), and Saline solution 0.9% from B. Braun (Germany) were used in this study. Two types of formulations were prepared: a formulation with a high dose of compound a1 (9 mM) and a formulation with a low dose of compound a1 (1.8 mM); c.f. Tables 5 and 6. […]. The formulation with the high dose of a1 was prepared using 9% a1-DMSO stock solution, 10% Cremophor EL, and 81% saline. The formulation with the low dose of a1 contained 1.8% a1-DMSO stock solution, 5% Cremophor EL, and 93.2% saline; c.f. FIG. 2.
Experiments were carried out in accordance with the EU Directive 86/609/EEC on the protection of animals used for scientific purposes. […]; c.f. Table 6. After injection, the mice were returned to their home cages, and after 1 hour, the mice were anaesthetized with isoflurane. Terminal blood samples were collected using a 1 ml syringe (20-G needle, B. Braun). The blood was immediately transferred into a 1.3 ml heparin-coated tube (Sarstedt). Plasma was collected by centrifugation at 1500 g for 15 minutes. The supernatant was placed in a 1.5 ml tube on dry ice and stored at −20° C.

T1 sequence (P04629 33-796): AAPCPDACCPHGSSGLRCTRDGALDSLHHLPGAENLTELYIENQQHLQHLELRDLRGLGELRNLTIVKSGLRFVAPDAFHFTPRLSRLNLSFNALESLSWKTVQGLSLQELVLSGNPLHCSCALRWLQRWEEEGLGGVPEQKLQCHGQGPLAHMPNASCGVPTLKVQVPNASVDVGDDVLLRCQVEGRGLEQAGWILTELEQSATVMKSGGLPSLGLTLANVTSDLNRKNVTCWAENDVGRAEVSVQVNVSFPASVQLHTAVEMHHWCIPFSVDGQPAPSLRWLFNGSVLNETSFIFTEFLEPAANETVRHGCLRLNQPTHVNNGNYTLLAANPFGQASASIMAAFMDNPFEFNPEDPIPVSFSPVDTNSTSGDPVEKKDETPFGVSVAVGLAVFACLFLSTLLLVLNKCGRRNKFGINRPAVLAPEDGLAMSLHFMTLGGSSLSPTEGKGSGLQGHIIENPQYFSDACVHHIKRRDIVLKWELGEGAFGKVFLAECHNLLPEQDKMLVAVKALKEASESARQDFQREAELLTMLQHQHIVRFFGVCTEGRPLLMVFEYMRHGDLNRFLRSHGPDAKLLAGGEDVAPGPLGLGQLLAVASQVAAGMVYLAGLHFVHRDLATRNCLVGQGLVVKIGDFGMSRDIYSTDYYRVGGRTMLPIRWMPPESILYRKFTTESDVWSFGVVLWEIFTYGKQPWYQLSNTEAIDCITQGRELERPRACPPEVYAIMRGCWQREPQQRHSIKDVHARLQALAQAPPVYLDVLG

CN1CCN(c2cc(Nc3cc(-c4cccc(F)c4)[nH]n3)nc(Sc3ccccc3)n2)CC1 [a1, N-[5-(3-fluorophenyl)-1H-pyrazol-3-yl]-6-(4-methylpiperazin-1-yl)-2-(phenylsulfanyl)pyrimidin-4-amine]
% Ctrl. TrkA @10 nM (TrkA [1]; 10 nM compound): 11 % Ctrl.
% Ctrl. TrkA @100 nM (TrkA [1]; 100 nM compound): 1.9 % Ctrl.
% Ctrl. AurA @100 nM (AurA; 100 nM compound): 97 % Ctrl.
% Ctrl. AurA @1 μM (AurA; 1 μM compound): 92 % Ctrl.
TrkA [pKd] (TrkA [2]): 8.6
Kd (TrkA [2]; duplicate 11-point dose-response curves): 2.6 nM
ΔpKd (TrkA [3]; TrkA pKd versus AurA pKd): 3.3
improved selectivity against off-target AurA (TrkA [3]; TrkA versus AurA): 10,000 fold
# Hits (panel of 97 kinases; N = 92 non-mutant kinases): 7
List of inhibited kinases (panel of 97 kinases): TrkA, TrkB, TrkC, FLT3, KIT,; also recorded: PDGFRb, RET
Selectivity Score (panel of 97 kinases; inhibited kinases/tested kinases): 0.08 and 0.076
signs of toxicity (C57Bl/6 mice; 5 and 25 mg/kg i.v., all animals): none of the animals showed any obvious signs of toxicity; also recorded: none of the animals showed any toxic sign
Toxicity (C57Bl/6 mice; a1_high formulation, 25 mg/kg i.v.): None
Toxicity (C57Bl/6 mice; a1_low formulation, 5 mg/kg i.v.): None
